Laboratory results from the NIST ThermoML archive (doi:10.1021/acs.jced.8b00201).
± gives the expanded uncertainty stated by the source.

Assay: xn = mol fraction of the nth substance listed
Conditions: 100 kPa, Liquid; for mass density: Vibrating tube method; for viscosity: Concentric cylinders viscometry

O=C1CCCCC1 [cyclohexanone] + CCCCCCCCCCO
Conditions	mass density, 308.15 K [kg/m3]	mass density, 313.15 K [kg/m3]	mass density, 318.15 K [kg/m3]	mass density, 323.15 K [kg/m3]	viscosity, 313.15 K [mPa·s]	viscosity, 318.15 K [mPa·s]	viscosity, 323.15 K [mPa·s]
x1 = 0.0807	823.9 ± 20	820.4 ± 20	816.9 ± 20	813.3 ± 20	5.99 ± 0.3	5.08 ± 0.26	4.41 ± 0.22
x1 = 0.1613	829.1 ± 20	825.5 ± 20	821.9 ± 20	818.3 ± 20	5.26 ± 0.26	4.45 ± 0.22	3.88 ± 0.2
x1 = 0.2387	834.5 ± 20	830.8 ± 20	827.2 ± 20	823.5 ± 20	4.6 ± 0.23	3.86 ± 0.19	3.43 ± 0.17
x1 = 0.3519	843.4 ± 20	839.6 ± 20	835.9 ± 20	832.1 ± 20	3.75 ± 0.19	3.15 ± 0.16	2.84 ± 0.14
x1 = 0.4407	851.4 ± 20	847.4 ± 20	843.6 ± 20	839.8 ± 20	3.17 ± 0.16	2.69 ± 0.14	2.46 ± 0.12
x1 = 0.5568	863.3 ± 20	859.2 ± 20	855.3 ± 20	851.4 ± 20	2.6 ± 0.13	2.19 ± 0.11	2.05 ± 0.1
x1 = 0.6517	874.6 ± 20	870.3 ± 20	866.3 ± 20	862.5 ± 20	2.21 ± 0.11	1.88 ± 0.1	1.78 ± 0.09
x1 = 0.7412	886.7 ± 20	882.4 ± 20	878.3 ± 20	874.4 ± 20	1.92 ± 0.1	1.67 ± 0.08	1.57 ± 0.08
x1 = 0.8518	904.2 ± 20	899.7 ± 20	895.5 ± 20	891.7 ± 20	1.7 ± 0.09	1.51 ± 0.08	1.42 ± 0.07
x1 = 0.9441	921.5 ± 20	916.9 ± 20	912.6 ± 20	908.8 ± 20	1.57 ± 0.08	1.44 ± 0.07	1.35 ± 0.07
x1 = 1	933.5 ± 20	928.8 ± 20	924.4 ± 20	920.7 ± 20	1.6 ± 0.08	1.46 ± 0.07	1.34 ± 0.07
